Data published in paper PMC11062899, “De novo development of small cyclic peptides that are orally bioavailable” (Nature Chemical Biology, 2023).
Several values for one entry are separate records, joined by “and”; a condition that tells them apart may be missing. Identical values can stand only once.

How the values were obtained:
[1] = Passive artificial membrane permeability (PAMPA); settings: for PAMPA permeability: % permeability: 50 μM, 12–18 h, acceptor concentration relative to equilibrium; for Papp at 50 μM / Permeability% Average / Permeability% R1 / Permeability% R3: PAMPA; for Papp at 50 μM: pH 7.4; for Permeability% Average: average of R1-R3; for Permeability% R1: replicate R1; for Permeability% R1 / Permeability% R3: TIC of top well sample relative to sample at theoretical equilibrium; for Permeability% R3: replicate R3
rat α-thrombin = target: T1, rat α-thrombin (Rattus norvegicus, UniProt P18292); assay: Protease inhibition, Ki for rat α-thrombin (fluorogenic substrate Z-Gly-Gly-Arg-AMC); assay type: biochemical; settings: replicates R1-R3
T1 construct: rat α-thrombin (Molecular Innovations) were used at final concentrations of 2 nM and 3 nM; purchased Molecular Innovations
How it was run: (§1)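 Inhibition was measured as AMC fluorescence from 50 μM substrate, monitored for 30 min at 25 °C, relative to a peptide-free control. Human and rat enzymes were present at 2 nM and 3 nM final, respectively, in 50 mM Tris-HCl pH 7.4, 150 mM NaCl, 10 mM MgCl2, 1 mM CaCl2. Ki derives from fitted IC50 via Cheng–Prusoff.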

human α-thrombin = human α-thrombin (Homo sapiens, UniProt P00734); assay: Protease inhibition, Ki for human α-thrombin (fluorogenic substrate Z-Gly-Gly-Arg-AMC); assay type: biochemical; settings: replicates R1-R3
How it was run: as §1

porcine pepsin = target: T2, porcine pepsin (Sus scrofa, UniProt P00791); assay: Peptide stability in simulated gastric fluid (SGF); assay type: in vitro ADME; settings: for SGF stability, Residual peptide Average / SGF stability, Residual peptide: after 8 h vs 0 h (TIC); for SGF stability, Residual peptide Average: average of R1-R3; for SGF stability, Residual peptide: single replicates R1-R3; for remaining at 8 h: simulated gi fluid, 37 °C, pH 1.2, read-out: Proteolytic stability: SGF (8 h) % remaining
T2 construct: 0.32 g of porcine pepsin (Sigma-Aldrich, P7125) was dissolved under gentle agitation; purchased Sigma-Aldrich P7125
How it was run: (§2)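 Peptide from a 1 mM DMSO stock was added to fluid pre-warmed at 37 °C. SGF was pH 1.2 NaCl with porcine pepsin (0.32 g per 100 ml), and SIF was pH 6.8 potassium phosphate with porcine pancreatin (1 g per 100 ml). Supernatant peptide was quantified by LC–MS, with residual expressed as T1/T0.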

[2] = Peptide stability in simulated intestinal fluid (SIF); assay type: in vitro ADME, porcine; settings: simulated gi fluid; 8 h, 37 °C, pH 6.8; read-out: Proteolytic stability: SIF (8 h) % remaining
How it was run: as §2

porcine pancreatin = assay: as above; assay type: in vitro ADME; settings: after 8 h vs 0 h (TIC); for SIF stability, Residual peptide Average: average of R1-R3
How it was run: as §2

[3] = Metabolic stability in rat liver microsomes (RLMs); settings: rat, microsomes
[4] = peptide 1.33E+02 uM, slope of proteolytic substrate cleavage over time
[5] = CL (ul/min/mg protein) R1, RLM CL, replicate R1
[6] = CL (ul/min/mg protein) R2, RLM CL, replicate R2
[7] = CL (ul/min/mg protein) R3, RLM CL, replicate R3
[8] = Half Life (min) R1, RLM metabolic stability, replicate R1, 0-60 min
[9] = Half Life (min) R2, RLM metabolic stability, replicate R2, 0-60 min
[10] = Half Life (min) R3, RLM metabolic stability, replicate R3, 0-60 min
[11] = Metabolic stability: RLM CL (ul/min/mg), RLMs, mean and SD, three measurements

T2 sequence (P00791 60-385): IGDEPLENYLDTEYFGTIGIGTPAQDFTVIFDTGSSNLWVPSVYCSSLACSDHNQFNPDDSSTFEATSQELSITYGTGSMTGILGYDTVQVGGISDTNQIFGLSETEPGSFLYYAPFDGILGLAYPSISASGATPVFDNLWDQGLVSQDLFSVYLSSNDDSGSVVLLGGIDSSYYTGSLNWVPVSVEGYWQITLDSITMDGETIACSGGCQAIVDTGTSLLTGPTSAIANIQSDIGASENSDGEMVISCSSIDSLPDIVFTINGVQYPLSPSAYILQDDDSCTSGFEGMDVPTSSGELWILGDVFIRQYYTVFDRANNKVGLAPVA

NC(=O)NCCC[C@@H]1NC(=O)[C@@H](NC(=O)c2ccc(Cl)s2)CNC(=O)CCSCc2cccc(n2)CSCCNC1=O [compound 20]
PAMPA permeability: % permeability [1]: 0.99 ± 0.28% | Papp at 50 μM [1]: 0.0646 ×10⁻⁶ cm/s | Permeability% Average [1]: 1.0% | Permeability% R1 [1]: 1.25% | Permeability% R3 [1]: 1.03% | Rat alpha thrombin inhibition, slope normalized to DMSO (rat α-thrombin; [4]): 12.2 and 19.4 and 24.3 | Rat alpha thrombin inhibition, slope normalized to DMSO (rat α-thrombin; peptide 1.67E+01 uM): 41.8 and 45.6 and 42.9 | Rat alpha thrombin inhibition, slope normalized to DMSO (rat α-thrombin; peptide 2.08E+00 uM): 71.5 and 79.0 and 60.4 | Rat alpha thrombin inhibition, slope normalized to DMSO (rat α-thrombin; peptide 3.33E+01 uM): 25.4 and 28.0 and 27.8 | Rat alpha thrombin inhibition, slope normalized to DMSO (rat α-thrombin; peptide 4.17E+00 uM): 66.5 and 70.9 and 68.3 | Rat alpha thrombin inhibition, slope normalized to DMSO (rat α-thrombin; peptide 6.67E+01 uM): 16.3 and 21.9 and 8.4 | Rat alpha thrombin inhibition, slope normalized to DMSO (rat α-thrombin; peptide 8.33E+00 uM): 56.5 and 61.2 and 59.0 | Human alpha thrombin inhibition, slope normalized to DMSO (human α-thrombin; peptide 1.02E-03 uM): 98.9 and 95.1 and 89.8 | Human alpha thrombin inhibition, slope normalized to DMSO (human α-thrombin; peptide 1.04E+00 uM): 90.6 and 90.5 and 80.1 | Human alpha thrombin inhibition, slope normalized to DMSO (human α-thrombin; peptide 1.27E-04 uM): 100.0 and 98.9 and 93.2 | Human alpha thrombin inhibition, slope normalized to DMSO (human α-thrombin; peptide 1.30E-01 uM): 69.5 and 98.5 and 88.7 | Human alpha thrombin inhibition, slope normalized to DMSO (human α-thrombin; [4]): 42.6 and 48.7 and 48.9 | Human alpha thrombin inhibition, slope normalized to DMSO (human α-thrombin; peptide 1.63E-02 uM): 88.4 and 95.2 and 91.8 | Human alpha thrombin inhibition, slope normalized to DMSO (human α-thrombin; peptide 1.67E+01 uM): 73.5 and 78.5 and 58.5 | Human alpha thrombin inhibition, slope normalized to DMSO (human α-thrombin; peptide 2.03E-03 uM): 99.2 and 96.7 and 91.4 | Human alpha thrombin inhibition, slope normalized to DMSO (human α-thrombin; peptide 2.08E+00 uM): 75.3 and 92.4 and 77.6 | Human alpha thrombin inhibition, slope normalized to DMSO (human α-thrombin; peptide 2.54E-04 uM): 99.2 and 99.7 and 92.0 | Human alpha thrombin inhibition, slope normalized to DMSO (human α-thrombin; peptide 2.60E-01 uM): 120.3 and 99.5 and 85.9 | Human alpha thrombin inhibition, slope normalized to DMSO (human α-thrombin; peptide 3.18E-05 uM): 87.6 and 101.9 and 93.6 | Human alpha thrombin inhibition, slope normalized to DMSO (human α-thrombin; peptide 3.26E-02 uM): 82.7 and 95.9 and 92.3 | Human alpha thrombin inhibition, slope normalized to DMSO (human α-thrombin; peptide 3.33E+01 uM): 52.1 and 61.8 and 43.1 | Human alpha thrombin inhibition, slope normalized to DMSO (human α-thrombin; peptide 4.07E-03 uM): 96.4 and 99.1 and 90.2 | Human alpha thrombin inhibition, slope normalized to DMSO (human α-thrombin; peptide 4.17E+00 uM): 69.9 and 89.4 and 83.9 | Human alpha thrombin inhibition, slope normalized to DMSO (human α-thrombin; peptide 5.09E-04 uM): 96.6 and 98.5 and 95.0 | Human alpha thrombin inhibition, slope normalized to DMSO (human α-thrombin; peptide 5.21E-01 uM): 80.4 and 93.9 and 89.5 | Human alpha thrombin inhibition, slope normalized to DMSO (human α-thrombin; peptide 6.36E-05 uM): 91.9 and 97.1 and 90.0 | Human alpha thrombin inhibition, slope normalized to DMSO (human α-thrombin; peptide 6.51E-02 uM): 80.1 and 98.2 and 90.6 | Human alpha thrombin inhibition, slope normalized to DMSO (human α-thrombin; peptide 6.67E+01 uM): 54.5 and 43.3 and 24.5 | Human alpha thrombin inhibition, slope normalized to DMSO (human α-thrombin; peptide 8.14E-03 uM): 89.1 and 102.0 and 83.1 | Human alpha thrombin inhibition, slope normalized to DMSO (human α-thrombin; peptide 8.33E+00 uM): 94.4 and 79.6 and 74.6 | SGF stability, Residual peptide Average (porcine pepsin): 96.69 | SGF stability, Residual peptide (porcine pepsin): 100.68 and 91.38 and 98.01 | remaining at 8 h (porcine pepsin): 97 ± 5% | remaining at 8 h [2]: 93 ± 13% | SIF stability, Residual peptide Average (porcine pancreatin): 92.33 | microsomal CLint [3, 5]: 29.5 µL/min/mg | microsomal CLint [3, 6]: 24 µL/min/mg | microsomal CLint [3, 7]: 26.2 µL/min/mg | half-life [3, 8]: 46.9 min | half-life [3, 9]: 57.7 min | half-life [3, 10]: 53 min | microsomal CLint [3, 11]: 27 ± 2 µL/min/mg

O=C1NCCSCc2cccc(n2)CSCCC(=O)N2CCC[C@H]2C(=O)N2CCN(C(=O)c3ccc(Cl)s3)CC12 (stereo partly drawn) [compound 23]
PAMPA permeability: % permeability [1]: 63 ± 5% | Papp at 50 μM [1]: 6.46 ×10⁻⁶ cm/s | Permeability% Average [1]: 62.6% | Permeability% R1 [1]: 59.23% | Permeability% R3 [1]: 59.76% | Rat alpha thrombin inhibition, slope normalized to DMSO (rat α-thrombin; [4]): 2.4 and 2.8 and 19.0 | Rat alpha thrombin inhibition, slope normalized to DMSO (rat α-thrombin; peptide 1.67E+01 uM): 12.7 and 12.2 and 32.4 | Rat alpha thrombin inhibition, slope normalized to DMSO (rat α-thrombin; peptide 2.08E+00 uM): 50.5 and 50.4 and 69.3 | Rat alpha thrombin inhibition, slope normalized to DMSO (rat α-thrombin; peptide 3.33E+01 uM): 7.4 and 6.9 and 24.6 | Rat alpha thrombin inhibition, slope normalized to DMSO (rat α-thrombin; peptide 4.17E+00 uM): 35.4 and 36.2 and 53.3 | Rat alpha thrombin inhibition, slope normalized to DMSO (rat α-thrombin; peptide 6.67E+01 uM): 5.7 and 4.4 and 22.7 | Rat alpha thrombin inhibition, slope normalized to DMSO (rat α-thrombin; peptide 8.33E+00 uM): 23.3 and 24.4 and 38.9 | Human alpha thrombin inhibition, slope normalized to DMSO (human α-thrombin; peptide 1.02E-03 uM): 91.9 and 90.1 and 93.2 | Human alpha thrombin inhibition, slope normalized to DMSO (human α-thrombin; peptide 1.04E+00 uM): 79.8 and 81.1 and 79.3 | Human alpha thrombin inhibition, slope normalized to DMSO (human α-thrombin; peptide 1.27E-04 uM): 96.4 and 91.3 and 88.2 | Human alpha thrombin inhibition, slope normalized to DMSO (human α-thrombin; peptide 1.30E-01 uM): 96.0 and 91.0 and 92.0 | Human alpha thrombin inhibition, slope normalized to DMSO (human α-thrombin; [4]): 8.4 and 8.5 and -2.6 | Human alpha thrombin inhibition, slope normalized to DMSO (human α-thrombin; peptide 1.63E-02 uM): 97.2 and 84.3 and 96.8 | Human alpha thrombin inhibition, slope normalized to DMSO (human α-thrombin; peptide 1.67E+01 uM): 30.4 and 33.6 and 42.3 | Human alpha thrombin inhibition, slope normalized to DMSO (human α-thrombin; peptide 2.03E-03 uM): 97.8 and 93.0 and 96.6 | Human alpha thrombin inhibition, slope normalized to DMSO (human α-thrombin; peptide 2.08E+00 uM): 73.0 and 70.9 and 73.9 | Human alpha thrombin inhibition, slope normalized to DMSO (human α-thrombin; peptide 2.54E-04 uM): 99.0 and 94.8 and 97.2 | Human alpha thrombin inhibition, slope normalized to DMSO (human α-thrombin; peptide 2.60E-01 uM): 91.4 and 88.4 and 89.4 | Human alpha thrombin inhibition, slope normalized to DMSO (human α-thrombin; peptide 3.18E-05 uM): 91.8 and 117.4 and 98.4 | Human alpha thrombin inhibition, slope normalized to DMSO (human α-thrombin; peptide 3.26E-02 uM): 94.8 and 91.6 and 96.2 | Human alpha thrombin inhibition, slope normalized to DMSO (human α-thrombin; peptide 3.33E+01 uM): 18.0 and 18.8 and 20.4 | Human alpha thrombin inhibition, slope normalized to DMSO (human α-thrombin; peptide 4.07E-03 uM): 93.4 and 91.5 and 94.8 | Human alpha thrombin inhibition, slope normalized to DMSO (human α-thrombin; peptide 4.17E+00 uM): 59.5 and 58.3 and 61.9 | Human alpha thrombin inhibition, slope normalized to DMSO (human α-thrombin; peptide 5.09E-04 uM): 97.5 and 92.8 and 99.8 | Human alpha thrombin inhibition, slope normalized to DMSO (human α-thrombin; peptide 5.21E-01 uM): 87.6 and 85.1 and 86.8 | Human alpha thrombin inhibition, slope normalized to DMSO (human α-thrombin; peptide 6.36E-05 uM): 100.5 and 90.1 and 98.6 | Human alpha thrombin inhibition, slope normalized to DMSO (human α-thrombin; peptide 6.51E-02 uM): 92.5 and 91.3 and 93.7 | Human alpha thrombin inhibition, slope normalized to DMSO (human α-thrombin; peptide 6.67E+01 uM): 11.3 and 18.5 and 12.0 | Human alpha thrombin inhibition, slope normalized to DMSO (human α-thrombin; peptide 8.14E-03 uM): 94.9 and 92.1 and 95.9 | Human alpha thrombin inhibition, slope normalized to DMSO (human α-thrombin; peptide 8.33E+00 uM): 50.4 and 48.8 and 50.8 | SGF stability, Residual peptide Average (porcine pepsin): 98.66 | SGF stability, Residual peptide (porcine pepsin): 100.45 and 94.90 and 100.63 | remaining at 8 h (porcine pepsin): 99 ± 3% | remaining at 8 h [2]: 91 ± 9% | SIF stability, Residual peptide Average (porcine pancreatin): 91.31 | SIF stability, Residual peptide (porcine pancreatin; single replicates R1-R3): 90.99 and 82.41 and 100.52 | microsomal CLint [3, 5]: 73.8 µL/min/mg | microsomal CLint [3, 6]: 70.2 µL/min/mg | microsomal CLint [3, 7]: 77.1 µL/min/mg | half-life [3, 8]: 18.8 min | half-life [3, 9]: 19.7 min | half-life [3, 10]: 18 min | half-life ([3]; Metabolic stability: Half life T1/2 (min), RLMs, mean and SD, three measurements): 18.8 ± 0.7 min | microsomal CLint [3, 11]: 74 ± 3 µL/min/mg
